Measurements taken from ChEMBL document CHEMBL1201862, “PubChem BioAssay data set” (2004).
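Values below derive from 48-hour exposures of cells grown in 96-well plates, with endpoints linearly interpolated between the two concentrations bracketing the appropriate inhibition level. Here, GI50 denotes the concentration required for 50% inhibition of growth.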 Calls of active or inactive are those of the source. No stated cut-off is given here; in the data, active = GI50 up to about 1.1 µM and inactive = higher.

What was measured:
Assay in all cases: NCI-60 cell line screen, 48 h
[1] = system: SK-OV-3
[2] = system: OVCAR-4
[3] = system: KM-20L2
[4] = system: IGROV-1
[5] = system: RXF 393
[6] = system: HOP-92
[7] = system: DMS-114
[8] = system: UACC-62
[9] = system: NCI-H522
[10] = system: DLD-1
[11] = system: LOX IMVI
[12] = system: COLO 205
[13] = system: K562
[14] = system: HL-60
[15] = system: XF498
[16] = system: CCRF-CEM
[17] = system: TK-10
[18] = system: OVCAR-8
[19] = system: SNB-19
[20] = system: DMS-273
[21] = system: OVCAR-5
[22] = system: SN12C
[23] = system: SK-MEL-2
[24] = system: HOP-62
[25] = system: SNB-75
[26] = system: SF-268
[27] = system: UO-31
[28] = system: CAKI-1
[29] = system: RPMI-8226
[30] = system: M14
[31] = system: SK-MEL-5
[32] = system: LXFL 529
[33] = system: SW-620
[34] = system: NCI-H460
[35] = system: 786-0
[36] = system: Malme-3M
[37] = system: UACC-257
[38] = system: EKVX
[39] = system: HT-29
[40] = system: SK-MEL-28
[41] = system: SNB-78
[42] = system: HCT-15
[43] = system: A549
[44] = system: MOLT-4
[45] = system: NCI-H23
[46] = system: HCC 2998
[47] = system: M19-MEL
[48] = system: SF-539
[49] = system: SF-295
[50] = system: OVCAR-3
[51] = system: HCT-116
[52] = system: A498
[53] = system: KM12
[54] = system: U-251
[55] = system: NCI-H226
[56] = system: HOP-18

Measured: GI50

[N-]=[N+]=N/C1=C/CCCCC(=O)C1
inactive: [1] > 100 µM | [2] > 100 µM | [3] > 100 µM | [4] > 100 µM | [5] > 100 µM | [6] 51.4 µM | [7] > 100 µM | [8] > 100 µM | [9] 71.1 µM | [10] > 100 µM | [11] > 100 µM | [12] > 100 µM | [13] > 100 µM | [14] > 100 µM | [15] > 100 µM | [16] > 100 µM | [17] > 100 µM | [18] > 100 µM | [19] > 100 µM | [20] > 100 µM | [21] > 100 µM | [22] > 100 µM | [23] > 100 µM | [24] > 100 µM | [25] > 100 µM | [26] > 100 µM | [27] > 100 µM | [28] > 100 µM | [29] > 100 µM | [30] > 100 µM | [31] > 100 µM | [32] > 100 µM | [33] > 100 µM | [34] > 100 µM | [35] > 100 µM | [36] > 100 µM | [37] > 100 µM | [38] > 100 µM | [39] > 100 µM | [40] > 100 µM | [41] > 100 µM | [43] > 100 µM | [44] > 100 µM | [45] > 100 µM | [46] > 100 µM | [47] > 100 µM
> 100 µM: [42]

COc1ccc(CNc2nc3c(NC(C)=O)cc(C(F)(F)F)cc3nc2-c2ccccc2)cc1OC
inactive: [1] 40.7 µM | [48] 25.2 µM | [2] 10.6 µM | [3] > 100 µM | [49] 50 µM | [4] > 100 µM | [7] 15.2 µM | [8] 45.3 µM | [9] 2.69 µM | [10] > 100 µM | [11] > 100 µM | [12] > 100 µM | [50] 93.1 µM | [13] > 100 µM | [14] > 100 µM | [15] 78 µM | [16] > 100 µM | [51] 48.4 µM | [17] 32.1 µM | [18] 56.8 µM | [19] 45.6 µM | [20] 21.9 µM | [21] > 100 µM | [22] > 100 µM | [23] 57.7 µM | [24] 42.1 µM | [25] 1.32 µM | [26] 5.68 µM | [27] 7.45 µM | [28] 31.6 µM | [29] 68.5 µM | [30] 42.8 µM | [31] 21.5 µM | [52] > 100 µM | [32] 16.4 µM | [53] > 100 µM | [33] 77.3 µM | [34] > 100 µM | [35] 37.1 µM | [36] 95.3 µM | [37] > 100 µM | [38] 35.6 µM | [39] > 100 µM | [40] 19 µM | [54] 93.1 µM | [41] 10.7 µM | [43] 47.9 µM | [44] > 100 µM | [45] 59 µM | [46] > 100 µM | [47] > 100 µM
> 100 µM: [42]

COc1ccc2c(=O)oc3c(OC)cc(CCN(C)C)c4c(=O)oc1c2c34
inactive: [3] 14.9 µM | [7] 12.1 µM | [8] 17.9 µM | [9] 12.5 µM | [10] 22.8 µM | [12] 4.94 µM | [50] 16.1 µM | [13] 2.56 µM | [16] 1.49 µM | [18] 10.4 µM | [19] 14.3 µM | [20] 15.6 µM | [21] 17.9 µM | [22] 13.8 µM | [23] 17.7 µM | [24] 14.2 µM | [26] 12.9 µM | [55] 17.9 µM | [30] 17.4 µM | [31] 12.3 µM | [56] 14.4 µM | [52] 20.5 µM | [32] 13.3 µM | [36] 14.5 µM | [54] 14.4 µM | [41] 14.3 µM | [44] 11.5 µM | [45] 17.8 µM | [46] 12.4 µM | [47] 14.5 µM
